From patent US8242160B2, “Inhibitors of ubiquitin E1” (The United States of America, as represented by the …, priority 2005, dated 2012) come the findings set out here.

In experiment [1] the test system is J588 mouse myeloma cells. The experiment can be described thus: Killing of myeloma cells. Type of experiment: cell-based. From the text:
FIG. 6B depicts the dose-depending killing of J588 mouse myeloma cells by proteasome and E1 inhibitor by 4-[4-(5-nitro-furan-2-ylmethylene)-3,5-dioxo-pyrazolidin-1-yl]-benzoic acid methyl acid.
(§1) While p53 induces apoptotic cell death in many tumor cells, it generally only induces growth arrest in untransformed cells. This has been the rationale for many studies targeting the p53 system.

Experiment [2] relates to p53. The experiment is described as follows: Cellular p53 level by immunoblotting. Type of experiment: cell-based. The settings on record: six hours treatment; RPE cells. From the text: FIG. 5A depicts the increase in the levels of Mdm2 and p53 in RPE cells after treatment with the E1 inhibitor 4-[4-(5-nitro-furan-2-ylmethylene)-3,5-dioxo-pyrazolidin-1-yl]-benzoic acid methyl acid.

In experiment [3] the test system is IκBα. The experiment is described as follows: TNFα-induced IκBα degradation in cells. Type of experiment: cell-based.
For experiment [4], the system named is MEFs (mouse embryonic fibroblasts) that express wild type p53. The experiment can be described thus: Killing of MEFs that express wild type p53. The class given is cell-based.
From the text: as §1

Experiment [5] deals with T1, GST-UbcH5B (Homo sapiens, UniProt P62837).
T1 construct: made in house; host or cells: bacteria
The experiment is described as follows: E1+E2 assay: formation of E2-ubiquitin complex. Type of experiment: biochemical. The note with it: E1 preloaded with 32P-labeled ubiquitin, then E2 added with compound. The protocol:
One way that the compounds might inactivate E1 is by alkylating or otherwise irreversibly inactivating active site cysteines. Like E1, E2 also uses a cysteine to form thiolester bond with ubiquitin. Inhibitors that directly act on the cysteine of E1 might therefore also affect E2 activity, and thus function in a relatively non-specific manner. […]
c. E1+E2 Assay with Immobilized E2 • 20 pmoles of bacterially-expressed GST-UbcH5B are bound to GS beads for 30 minutes at room temperature. […] This is followed by resolution by SDS-PAGE under non-reducing conditions and exposure as above.

Experiment [6] has as its system GST-Mdm2. The experiment can be described thus: Standard Mdm2 in vitro ubiquitination assay (E1+E2+E3), gel-based with 32P-labeled ubiquitin. Type of experiment: biochemical. From the text: The ability of a compound to inhibit E1 activity may also be examined by determining the ability of the compound to inhibit Mdm2 autoubiquitination, which is dependent on E1, as well as E2. For in vitro assays Mdm2 can be expressed as a GST fusion. This allows for a high level of expression of protein that can be purified on glutathione Sepharose. Detection of ubiquitination of Mdm2 can be accomplished, for example, using ^32P-labeled ubiquitin, Western blotting with anti-ubiquitin, or by looking at a shift in the molecular weight of GST fusion by Western blotting with anti-GST. A variety of in vitro assays that measure levels of self-ubiquitinated Mdm2 can be employed, such as for example, immunoprecipitation of ubiquitinated Mdm2; gel assays wherein the amount of ubiquitinated Mdm2 is measured by densitometric scanning or where covalent attachment of radio-labeled or otherwise tagged ubiquitin to Mdm2 or p53 is measured; Western blot analysis, or other known techniques such as ELISA, immunoprecipitation, RIA, and the like. […]

Structures are written as SMILES. Where two headings read alike, the source gives them in different places.

T1 sequence (P62837 whole entry): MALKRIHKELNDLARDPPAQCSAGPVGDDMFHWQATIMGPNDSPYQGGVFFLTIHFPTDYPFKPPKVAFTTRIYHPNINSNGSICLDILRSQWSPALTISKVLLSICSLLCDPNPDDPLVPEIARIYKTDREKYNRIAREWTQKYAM

Consider `COC(=O)c1ccc(N2NC(=O)/C(=C/c3ccc([N+](=O)[O-])o3)C2=O)cc1` [E1-41, 4-[4-(5-nitro-furan-2-ylmethylene)-3,5-dioxo-pyrazolidin-1-yl]-benzoic acid methyl acid], for which the “killing of myeloma cells” value in experiment [1] is given as “kills myeloma cells in a dose-dependent manner”. Further, in experiment [2], the “cellular p53 level” value was “increased”. Moreover, in experiment [3], the “TNFα-induced IκBα degradation” value is given as “prevents TNFα-induced IκBα degradation”. The “killing of MEFs expressing wild type p53” value in experiment [4] is on record as “only kills MEFs”. Further, the “transfer of ubiquitin from E1 to E2 (formation of E2-ubiquitin complex)” value in experiment [5] was “did not affect transfer of ubiquitin from E1 to E2”. Further, the figures for the “Mdm2 autoubiquitination in vitro (high molecular weight species)” value in experiment [6] and in experiment [6] (listed as compound 41) were “prevent generation of high molecular weight species promoted by Mdm2 in a dose-dependent manner” and “inhibits autoubiquitination of Mdm2 in vitro”, respectively.
